Results from patent publication US9428536B2, “Immunostimulatory G, U-containing oligoribonucleotides” (Zoetis Belgium SA, priority 2002, dated 2016).

Assays:
[1] = tested on: wild type murine macrophages; experiment: Wild type murine macrophages in the presence of IFN-γ, IL-12 p40 ELISA; type: cell-based, mouse; conditions: FIG. 6 Panel A, 12 hours, RNA with DOTAP
Procedure: The following murine cells were isolated and incubated with various RNAs and other known TLR ligands in order to assess species-, cell type-, and signaling pathway-specificity: wild type macrophages in the presence of IFN-γ; MyD88-deficient macrophages in the presence of IFN-γ; J774 (mouse macrophage cell line); and RAW 264.7 (mouse macrophage cell line, e.g., ATCC TIB-71). Murine bone macrophages were generated from wild type or MyD88-deficient C57BL/6 mice by culturing bone marrow cells with 50 ng/ml M-CSF for 5 days. Cells were seeded at 25,000 cells/well and treated with 20 ng/ml IFN-γ for 16 hours. The murine macrophage cell lines RAW and J774 were seeded at 10,000 cells/well.
The following test and control agents were examined: R-848 (2 μg/ml), ODN 1668 (CpG DNA; 5′-[…]-3′; SEQ ID NO:7); LPS (1 μg/ml); poly IC (50 μg/ml); Pam3Cys (5 μg/ml); Ionomycin/TPA; the following RNA molecules, each with (“+Lipo”) and without DOTAP (10 μg/200 μl culture well): GUGUUUAC alone (RNA1); GUAGGCAC alone (RNA2); GUGUUUAC in combination with GUAGGCAC (RNA1/2); […] (RNA6; SEQ ID NO:8); […] (RNA9; SEQ ID NO:9); and the following DNA molecules, corresponding to RNA1, RNA2, and RNA1/2: GTGTTTAC alone (DNA1); GTAGGCAC alone (DNA2); and GTGTTTAC in combination with GTAGGCAC (DNA1/2). These RNA and DNA oligonucleotides each contained a phosphorothioate linkage between the penultimate and 3′ terminal nucleoside. RNA6 and RNA9 each contained in addition a phosphorothioate linkage between the penultimate and 5′ terminal nucleoside. RNA6 corresponds to a ribosomal RNA stem loop derived from Listeria monocytogenes. RNA9 corresponds to a stem loop derived from human immunodeficiency virus (HIV, an RNA retrovirus). The cells were cultured for 12 hours and supernatants were harvested. Murine IL-12 p40, IL-6, and TNF-α were measured by ELISA using matched antibody pairs from BD-Pharmingen according to the manufacturer's protocol.

human TLR7 = target: T1, human TLR7 (Homo sapiens, UniProt Q9NYK1); experiment: NF-κB luciferase reporter in 293 HEK cells transfected with human TLR7; type: cell-based; conditions: FIG. 12; transient transfectants; 7 hours stimulation
T1 construct: All full-length TLR fragments were cloned into pGEM-T Easy vector; expressed in transfected cells; host or cells: 293 HEK cells (ATCC), transient electroporation with pcDNA3.1(-) TLR expression plasmid
T1 sequence (Q9NYK1 27-1049): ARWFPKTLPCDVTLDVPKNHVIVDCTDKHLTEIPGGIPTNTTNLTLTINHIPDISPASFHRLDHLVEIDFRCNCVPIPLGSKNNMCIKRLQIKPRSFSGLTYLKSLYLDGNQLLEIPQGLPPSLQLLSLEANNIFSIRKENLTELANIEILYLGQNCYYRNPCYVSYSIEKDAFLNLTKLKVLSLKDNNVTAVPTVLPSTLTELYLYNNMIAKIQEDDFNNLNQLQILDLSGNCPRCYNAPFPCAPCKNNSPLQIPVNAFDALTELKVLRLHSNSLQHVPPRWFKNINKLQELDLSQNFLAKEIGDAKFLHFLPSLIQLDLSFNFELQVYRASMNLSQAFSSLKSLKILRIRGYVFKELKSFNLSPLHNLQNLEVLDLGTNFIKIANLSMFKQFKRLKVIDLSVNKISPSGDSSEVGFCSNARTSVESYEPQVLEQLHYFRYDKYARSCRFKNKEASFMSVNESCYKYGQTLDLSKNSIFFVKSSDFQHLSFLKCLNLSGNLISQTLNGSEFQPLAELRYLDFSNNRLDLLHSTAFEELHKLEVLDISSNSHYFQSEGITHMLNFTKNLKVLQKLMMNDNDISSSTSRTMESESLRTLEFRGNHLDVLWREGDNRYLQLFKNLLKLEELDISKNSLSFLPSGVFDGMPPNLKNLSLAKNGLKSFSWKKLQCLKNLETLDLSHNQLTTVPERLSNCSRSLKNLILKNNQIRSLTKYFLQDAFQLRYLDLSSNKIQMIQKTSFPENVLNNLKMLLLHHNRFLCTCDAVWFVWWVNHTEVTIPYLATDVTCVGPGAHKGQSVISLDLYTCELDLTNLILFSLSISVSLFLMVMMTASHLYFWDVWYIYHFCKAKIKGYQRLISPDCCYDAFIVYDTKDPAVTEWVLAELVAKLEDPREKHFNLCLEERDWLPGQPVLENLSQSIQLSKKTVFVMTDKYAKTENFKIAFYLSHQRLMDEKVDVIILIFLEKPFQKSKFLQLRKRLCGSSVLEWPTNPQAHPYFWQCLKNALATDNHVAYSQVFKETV
Procedure: FIG. 12 depicts the responsiveness of human TLR7 and human TLR8 to ribonucleosides. It was determined that the response by human PBMC to RNA or RVC was mediated by TLR7 or TLR8 and further that the response could be driven by ribonucleosides only. Human 293 cells were either mock-transfected or transfected with human TLR7 or human TLR8 and monitored for responsiveness to ribonucleosides. The open reading frames of human TLR7 (hTLR7) and human TLR8 (hTLR8) were amplified by PCR from a cDNA library of human PBMC using the following primers pairs: for TLR7, 5′-[…]-3′ (SEQ ID NO:15) and 5′-[…]-3′ (SEQ ID NO:16); and for TLR8, 5′-[…]-3′ (SEQ ID NO:17) and 5′-[…]-3′ (SEQ ID NO:18). The sequence information for primer selection was obtained from Genbank accession numbers AF240467 and AF245703. All full-length TLR fragments were cloned into pGEM-T Easy vector (Promega, Mannheim, Germany), excised with NotI, cloned into the expression vector pcDNA 3.1(−) (Invitrogen, Karlsruhe, Germany) and sequenced. Sequences of the coding region of hTLR7 and hTLR8 correspond to the accession numbers AF240467 (SEQ ID NO:25) and AF245703, respectively (SEQ ID NO:29).
For monitoring transient NF-κB activation, 3×10^6 293 HEK cells (ATCC, VA, USA) were electroporated at 200 volt and 960 μF with 1 μg TLR expression plasmid, 20 ng NF-κB luciferase reporter-plasmid and 14 μg of pcDNA3.1(−) plasmid as carrier in 400 μl RPMI medium supplemented with 25% fetal bovine serum (FCS). Cells were seeded at 10^5 cells per well and after over night culture stimulated with R-848 (denoted in FIG. 12 as X; commercially synthesized by GLSynthesis Inc., Worcester, Mass., USA), RVCs or ribonucleosides for a further 7 hours. Stimulated cells were lysed using reporter lysis buffer (Promega, Mannheim, Germany), and lysate was assayed for luciferase activity using a Berthold luminometer (Wildbad, Germany).

**Q.** Which results are given for CCOCc1nc2c(N)nc3ccccc3c2n1CC(C)(C)O [R-848, 4-amino-α,α-dimethyl-2-ethoxymethyl-1H-imidazo[4,5-c]quinoline-1-ethanol, reference compound]?
**A.** IL-12 p40 secretion by wild type murine macrophages [1]: significant amounts; response of TLR7 transfectants (NF-κB luciferase) (human TLR7): responded
